In patent publication US20240293420A1, “PHARMACEUTICAL COMPOSITION, PREPARATION, AND PREPARATION METHOD THEREFOR AND USE THEREOF” (WUHAN LL SCIENCE AND TECHNOLOGY DEVELOPMENT CO., LTD., priority 2021, published 2024):
“Also recorded” adds a separate entry of the source.

Tests used:
[1] = phase II clinical trial; cited from earlier work
[2] = Dynamic vapor sorption (DVS) test; format: physicochemical; conditions: for DVS (wt %, 80% RH) / DVS (wt %, 90% RH): 25° C.
[3] = Physical and chemical stability of crystal forms at 60° C. (closed) and 40° C./75% RH (open); format: physicochemical
Protocol: The physical and chemical stability of crystal forms I, III, and V at 60° C. (closed) and 40° C./75% RH (open) for 7 days were investigated respectively.
(closed) and 40° C./75% RH (open) for 3 months were investigated.

[4] = Solubility tests in biological media of SGF, FaSSIF and FeSSIF; format: physicochemical
Protocol: The instrument used for liquid chromatography analysis was Agilent HPLC 1260 series, and the analytical method is shown in the table below.
The results of solubility tests of crystal forms I, III, and V in biological media of SGF, FaSSIF, and FeSSF are as shown in Table E and FIG. 43. There was little difference in the solubility of the above three crystal forms in different biological media, and the solubility in SGF was higher than 5 mg/mL.

[5] = Pharmacokinetic experiments in Beagles; format: in vivo; conditions: Beagle, male, PO, 10 mg/kg, plasma
Protocol: The present disclosure preferred crystal forms I, III, and V of the compound in the above examples for pharmacokinetic experiments in Beagles, and the relevant experiments are as follows:
Animal: 9 Beagles, male, divided into three groups with 3 in each group, weight ranging from 10 to 13 kg (source & certificate number: Beijing Marshall Biotechnology Co., Ltd., No. 1103182011000161)
Administration mode and dosage: PO: 10 mg/kg
Preparation: 0.5% CMC-Na was used as the solvent, and 400 mg of each of the three different crystal forms of compound A were weighed and added to the corresponding 79 mL of solvent, respectively. The mixture was subjected to ultrasonication for 20 minutes, added with a stirrer, and mixed thoroughly for 3 hours (the storage period from compound preparation to animal administration at room temperature was less than 6 hours). After the drug solution became a homogeneous and fine suspension, which was observed by the naked eye, the solvent was gradually added until the specified volume reached the target concentration. The preparation was stirred for 10 minutes at room temperature before administration, and stirred continuously during administration.
Time points for sampling: the time points for blood sampling in the PO group were 0.167, 0.5, 1, 2, 4, 6, 8, and 24 hours.
Animals in the PO group were fasted overnight except for free access to water before administration, and resumed food supply 4 hours after administration.
After Beagles in the […] were administered, blood was collected from Beagles by jugular vein puncture according to the time points for sampling. About 1.0 mL of blood was collected at each time point and transferred to an anticoagulant EP tube (containing 10 μL of EDTA-K2, 375 mg/mL). The tube was gently inverted three times, stored in an ice box (no more than 30 minutes), and centrifuged at 3200 g for 10 minutes at 4° C. The plasma was transferred to an ultra-low temperature refrigerator and stored until detection.
Sample pretreatment process: 40 μL of sample was taken, and 160 μL of acetonitrile solution containing 0.1% FA and 200 ng/mL of mixed standard solution was added to precipitate the protein. The mixture was vortexed and mixed well, and the sample was centrifuged in a 4° C. centrifuge at 13000 pm for 10 minutes. 100 μL of the supernatant was transferred to another 96 deep well plate, then 100 μL of methanol:water (1:3, v:v) solution containing 0.1% FA was added thereto, and the mixture was shaken and mixed for 10 minutes.
• Ion source: ion electrospray (ESI) • Ionization mode: positive ion mode (Positive) • Detection mode (mode): multiple reaction monitoring (MRM) • Ion spray voltage: 5500 V • Ion spray temperature (turbo ion spray temp): 550° C. • Curtain gas type: nitrogen setting: 35 • Collision cell gas type (CAD gas type): nitrogen setting: medium • Nebulizing gas type (gas 1): nitrogen setting: 55.00 • Auxiliary gas type (gas 2): nitrogen setting: 55.00
• Chromatographic column: poroshell 120 EC-C18 (4.6×50 mm, 2.7 μm) • Mobile phase A: 0.1% formic acid aqueous solution • Mobile phase B: a solution of 0.1% formic acid in methanol • Auto sampler wash solution (rinse port wash solution): 50% methanol • Column temperature: 40° C. • Flow rate: 0.55 mL/min • Auto sampler temperature (sample tray temp): 10° C. • Injection volume: 3 μL • Lift of presser foot (needle stroke): 49 mm • Auto sampler rinse setting (rinse pump setting): rinse port only • Auto sampler rinse mode (rinse mode): before aspiration • Auto sampler rinse volume for needle (rinse volume): 500 μL • Dip time when rinsing the injection needle (rinse dip time): 2 seconds
The data would be analyzed using WinNonlin (version 5.2.1 Pharsight, Mountain View, CA) through a non-compartmental model to obtain PK parameters (selecting Cmax, Tmax, AUClast, T1/2, and other parameters according to different routes of administration).

[6] = Crystal form transformation under humidity / drying (XRPD); format: physicochemical; conditions: humidity or drying as stated in the value
Text: Crystal form I can be obtained by the preparation method in Example 3. […] (FIG. 29). Combined with the DVS test results (FIG. 30), it can be seen that the mutual transformation between crystal forms I and IV is reversible.
Crystal form IV is a hygroscopic product of crystal form I under high humidity environment, and can be obtained by slurrying crystal form I or crystal form V in a mixed solvent of water/acetone with a water content of 50% to 95%.
Crystal form VI was obtained by slurrying crystal form I or crystal form V at 60° C. in a mixed solvent of water/acetone with a water content of 10% (volume ratio) at 60° C.
Crystal form VIII is a hydrate, but the hydrate is unstable.

DVS (wt %, 80% RH) ([2]; 80% RH) [wt %]	DVS (wt %, 90% RH) [2] [wt %]	Purity - 7 days (peak area %) ([3]; 40° C./75% RH (open), 7 days)	Purity - 7 days (peak area %) ([3]; 60° C. (closed), 7 days)	Initial purity (peak area %) [3] [peak area %]	pH ([4]; FaSSIF, 0.5 h)	pH ([4]; FaSSIF, 2 h)	pH ([4]; FaSSIF, 24 h)	pH ([4]; FeSSIF, 0.5 h)	pH ([4]; FeSSIF, 2 h)	pH ([4]; FeSSIF, 24 h)	pH ([4]; SGF, 0.5 h)	pH ([4]; SGF, 2 h)	pH ([4]; SGF, 24 h)	AUClast [5] [ng·h/mL]	Cmax [5] [ng/mL]	T1/2 [5] [h]	Structure (SMILES)	XRPD of remaining solid ([4]; FaSSIF, 0.5 h)	XRPD of remaining solid ([4]; FeSSIF, 0.5 h)	crystal form transformation [6]	also measured
6.8	6.9	99.38	99.37	99.38	6.4	6.4	6.4	5.0	5.1	5.1	1.2	1.3	1.2	7926 ± 6235	991 ± 800	11.9 ± 3.65	COC(=O)N1CCO[C@@H](Cc2c(-c3c(F)cc(S(N)(=O)=O)cc3F)nc3cc(Cl)ccn23)C1 [Crystal form I, methyl (S)-2-((7-chloro-2-(2,6-difluoro-4-sulfamoylphenyl)imidazo[1,2-a]pyridin-3-yl)methyl)morpholine-4-carboxylate]	transformed into crystal form IV as a hydrate	transformed into crystal form IV as a hydrate	absorbed moisture under high humidity environment and was transformed into crystal form IV as a hydrate; also recorded: easy to transform into crystal form IV when RH >40%	XRPD before and after the DVS test [2]: remained unchanged; hygroscopicity (DVS) ([2]; 80% RH): 6.8%; XRPD ([3]; 40° C./75% RH (open), 7 days): transformed into crystal form IV as a hydrate; Tmax [5]: 2.00 ± 0.00 h
0.7	0.9	99.28	99.30	99.29	6.4	6.4	6.4	5.0	5.0	5.1	1.2	1.1	1.2	2637 ± 1750	170 ± 99.4	44.4 ± 28.9	COC(=O)N1CCO[C@@H](Cc2c(-c3c(F)cc(S(N)(=O)=O)cc3F)nc3cc(Cl)ccn23)C1 [Crystal form V, methyl (S)-2-((7-chloro-2-(2,6-difluoro-4-sulfamoylphenyl)imidazo[1,2-a]pyridin-3-yl)methyl)morpholine-4-carboxylate]	Unchanged	Unchanged		XRPD of remaining solid ([4]; FaSSIF, 2 h): Unchanged; XRPD of remaining solid ([4]; FaSSIF, 24 h): Unchanged; XRPD of remaining solid ([4]; FeSSIF, 2 h): Unchanged; XRPD of remaining solid ([4]; FeSSIF, 24 h): Unchanged; solubility at 2 h ([4]; pH 1.1, simulated gastric fluid, thermodynamic from solid, SGF, 2 h, visual observation): > 5000 µg/mL; Tmax [5]: 4.67 ± 0.67 h

Second part, the compound before the results:

Structure (SMILES)	DVS (wt %, 80% RH) ([2]; 80% RH) [wt %]	DVS (wt %, 90% RH) [2] [wt %]	Purity - 7 days (peak area %) ([3]; 40° C./75% RH (open), 7 days)	Purity - 7 days (peak area %) ([3]; 60° C. (closed), 7 days)	Initial purity (peak area %) [3] [peak area %]	pH ([4]; FaSSIF, 0.5 h)	pH ([4]; FaSSIF, 2 h)	pH ([4]; FaSSIF, 24 h)	pH ([4]; FeSSIF, 0.5 h)	pH ([4]; FeSSIF, 2 h)	pH ([4]; FeSSIF, 24 h)	pH ([4]; SGF, 0.5 h)	pH ([4]; SGF, 2 h)	pH ([4]; SGF, 24 h)	AUClast [5] [ng·h/mL]	Cmax [5] [ng/mL]	T1/2 [5] [h]	XRPD of remaining solid ([4]; FaSSIF, 0.5 h)	XRPD of remaining solid ([4]; FeSSIF, 0.5 h)	crystal form transformation [6]	also measured
COc1cc(C(C)C)c(Oc2cnc(N)nc2N)cc1S(N)(=O)=O [AF-219]																					dysgeusia [1]: serious dysgeusia problem; efficacy on refractory cough [1]: good efficacy
COC(=O)N1CCO[C@@H](Cc2c(-c3c(F)cc(S(N)(=O)=O)cc3F)nc3cc(Cl)ccn23)C1 [Crystal form IV, methyl (S)-2-((7-chloro-2-(2,6-difluoro-4-sulfamoylphenyl)imidazo[1,2-a]pyridin-3-yl)methyl)morpholine-4-carboxylate]																				transformed into crystal form I as an anhydrous crystal form after vacuum drying and dehydration	
COC(=O)N1CCO[C@@H](Cc2c(-c3c(F)cc(S(N)(=O)=O)cc3F)nc3cc(Cl)ccn23)C1 [Crystal form VI, methyl (S)-2-((7-chloro-2-(2,6-difluoro-4-sulfamoylphenyl)imidazo[1,2-a]pyridin-3-yl)methyl)morpholine-4-carboxylate]																				transformed into crystal form I after being placed under ambient humidity (35% RH) for a few minutes	
COC(=O)N1CCO[C@@H](Cc2c(-c3c(F)cc(S(N)(=O)=O)cc3F)nc3cc(Cl)ccn23)C1 [Crystal form VIII, methyl (S)-2-((7-chloro-2-(2,6-difluoro-4-sulfamoylphenyl)imidazo[1,2-a]pyridin-3-yl)methyl)morpholine-4-carboxylate]																				transformed into crystal form I	
